Data on eight compounds can be found in US12274775B2, “Fatty acid esters as anti-Malassezia agents” (SYMRISE AG, priority 2019, dated 2025).

Common to all, as to experiment: Agar dilution test on mDixon agar, minimal inhibitory concentration (MIC)
Holding throughout (format): cell-based
(In agar dilution, organisms are placed on agar that contains the substance at set levels.)

In one test the test system is M. furfur. To be noted: agar dilution, pH 5.5, 32° C., up to 14 days; for MIC: Malassezia furfur, read-out: Minimal inhibitory concentration (MIC). On the procedure:
(§1) The fatty acid esters and their mixtures were tested for growth inhibition against Malassezia. The following reference strains were included:
(§2) Tests were performed on solid media using agar dilution tests. Stock solutions of test substances were prepared in mDixon-Agar (cf. Table 2). Lower test concentrations were obtained by diluting stock solutions with fresh agar.
(§3) Preparation of liquid agar was carried out in temperated water bath. Required amounts of test substances were weighed in 130 ml of Dixon Agar and mixed with fresh Dixon-Agar to reach desired concentrations of test substances. Agar solutions with test substances were then poured into 24 well-plates. The pH value in all assays was maintained at 5.5. Preparation of test substances was done on weight per volume base. All results are expressed in parts per million (1 ppm=0.0001%).
(§4) Briefly, Malassezia strains were cultivated on selective agar for pathogenic fungi (Merck) and overlaid with a thin layer of cold-sterilized olive oil. […] Incubation was carried out at 32° C. over a maximal duration of 14 days with regular inspection and documentation of growth status. Minimal inhibitory concentrations (MICs) were determined as the lowest concentrations of test compound without visible growth. Each experiment was repeated to confirm results.

In the next test the test system is M. globosa. To be noted: agar dilution, pH 5.5, 32° C., up to 14 days; for MIC: Malassezia globosa, read-out: Minimal inhibitory concentration (MIC). On the procedure:
as §1, §2, §3, §4

Another test concerns M. pachydermatis. To be noted: agar dilution, pH 5.5, 32° C., up to 14 days; for MIC: Malassezia pachydermatis, read-out: Minimal inhibitory concentration (MIC). The method, then: as §1, §2, §3, §4
In the next test the test system is M. restricta. To be noted: M. restricta CBS 7877, agar dilution, pH 5.5, 32° C., up to 14 days; for MIC: 336 h, read-out: Minimal inhibitory concentration (MIC). The method, then: as §1, §2, §3, §4
The next test relates to M. sympodialis. To be noted: up to 14 days; for MIC: 336 h, read-out: Minimal inhibitory concentration (MIC). The method, then:
as §1, §2, §3, §4

Where [1] appears, read: CBS1878, 336 h, M. furfur CBS 1878.
Where [2] appears, read: CBS7019, 336 h, M. furfur CBS 7019.
The mark [3] stands for this setting: CBS7705, 336 h, M. globosa CBS 7705.
The mark [4] stands for this setting: CBS7966, 336 h, M. globosa CBS 7966.
Setting [5] is: CBS1879, 336 h, M. pachydermatis CBS 1879.
Where [6] appears, read: pH 5.5, M. sympodialis ATCC 42132, pH 5.5, 32° C.
Setting [7] is: pH 5.5, M. sympodialis CBS 7222, pH 5.5, 32° C.
[8] abbreviates: pH 5.5, M. sympodialis CBS 7979, pH 5.5, 32° C.
Where [9] appears, read: pH 5.5, M. sympodialis DSM 6171, pH 5.5, 32° C.

Values after ≈ are worked out from the molar mass of the structure shown. Read-outs that look alike come from different tables or passages of the source. Bounds are passed on as bounds.

As to `C=CCCCCCCCCC(=O)OCC` [Ethyl undecylenoate], the MIC in the test on M. furfur (setting [1]) was 20000 µg/mL (≈ 94.2 mM); in the test with M. furfur (setting [2]), above 20000 µg/mL; in the test on M. globosa (336 h, M. globosa PM1), 8000 µg/mL (≈ 37.7 mM); in the test with M. globosa (setting [3]), 4000 µg/mL (≈ 18.8 mM); with M. globosa (setting [4]), 10000 µg/mL (≈ 47.1 mM); in the test on M. pachydermatis (336 h, M. pachydermatis 1892), 500 µg/mL (≈ 2.35 mM). The MIC in the test on M. pachydermatis (setting [5]) came to 2000 µg/mL (≈ 9.42 mM); in the test on M. restricta, 1000 µg/mL (≈ 4.71 mM); in the test with M. sympodialis (setting [6]), 200 µg/mL (≈ 0.942 mM); with M. sympodialis (setting [7]) it was 200 µg/mL (≈ 0.942 mM); with M. sympodialis (setting [8]), 200 µg/mL (≈ 0.942 mM); in the test with M. sympodialis (setting [9]), 200 µg/mL (≈ 0.942 mM).
Turning to `CCCCCCC(O)CO` (stereo not shown) [1,2-Octandiol], the MIC with M. globosa (336 h, M. globosa PM1) amounted to 2000 µg/mL (≈ 13.7 mM); in the test on M. globosa (setting [3]), 4000 µg/mL (≈ 27.4 mM); with M. globosa (setting [4]) it was 2000 µg/mL (≈ 13.7 mM); with M. restricta, 1000 µg/mL (≈ 6.84 mM); in the test on M. sympodialis (setting [6]) it was 2000 µg/mL (≈ 13.7 mM); in the test on M. sympodialis (setting [7]) it was 2000 µg/mL (≈ 13.7 mM). Moreover, the MIC in the test on M. sympodialis (setting [8]) and in the test on M. sympodialis (setting [9]) was 2000 µg/mL (≈ 13.7 mM) throughout.
Consider `C=CCCCCCCCCC(=O)OCC(COC(=O)CCCCCCCCC=C)OC(=O)CCCCCCCCC=C` [Glyceryl triundecylenoate], for which the “Minimal inhibitory concentration (MIC)” value was 10000 ppm in the test on M. furfur (M. furfur CBS 1878); above 20000 ppm in the test on M. furfur (M. furfur CBS 7019); 8000 ppm in the test on M. globosa (M. globosa CBS 7705); above 20000 ppm in the test on M. globosa (M. globosa CBS 7966); 8000 ppm in the test on M. globosa (M. globosa PM1); 4000 ppm with M. pachydermatis (M. pachydermatis 1892). In addition, the “Minimal inhibitory concentration (MIC)” value in the test with M. pachydermatis (M. pachydermatis CBS 1879) and with M. restricta was 4000 ppm in each case.
Regarding `CCCCCCCCCCC(O)CO` (stereo not shown) [1,2-Dodecandiol], the MIC in the test with M. globosa (336 h, M. globosa PM1) was 40000 µg/mL (≈ 198 mM); in the test on M. globosa (setting [3]), 40000 µg/mL (≈ 198 mM); with M. globosa (setting [4]) it was 40000 µg/mL (≈ 198 mM); in the test on M. restricta, 8000 µg/mL (≈ 39.5 mM); with M. sympodialis (setting [6]), 2000 µg/mL (≈ 9.88 mM); with M. sympodialis (setting [7]) it was 4000 µg/mL (≈ 19.8 mM). The MIC in the test with M. sympodialis (setting [8]) and with M. sympodialis (setting [9]) was 4000 µg/mL (≈ 19.8 mM) each time.
Consider `CCCCCCCC(=O)OCC` [Ethyl caprylate], for which the MIC in the test with M. furfur (setting [1]) was above 20000 µg/mL; in the test on M. furfur (setting [2]), 10000 µg/mL (≈ 58 mM); in the test on M. globosa (336 h, M. globosa PM1), 1000 µg/mL (≈ 5.8 mM); in the test on M. globosa (setting [4]), 1000 µg/mL (≈ 5.8 mM); in the test on M. pachydermatis (336 h, M. pachydermatis 1892), 1000 µg/mL (≈ 5.8 mM); in the test with M. pachydermatis (setting [5]), below 500 µg/mL. The MIC in the test on M. restricta worked out at 4000 µg/mL (≈ 23.2 mM); in the test with M. sympodialis (setting [6]) it was 1000 µg/mL (≈ 5.8 mM); with M. sympodialis (setting [7]), 1000 µg/mL (≈ 5.8 mM); in the test on M. sympodialis (setting [8]) it was 1000 µg/mL (≈ 5.8 mM); in the test on M. sympodialis (setting [9]) it was 1000 µg/mL (≈ 5.8 mM).
Take `CCCCCCCC(=O)OCC(CO)OC(=O)CCCCCCC` (stereo not shown) [3-Hydroxypropyl dicaprylate]: the “Minimal inhibitory concentration (MIC)” value in the test on M. furfur (M. furfur CBS 1878) is on record as above 20000 ppm; in the test on M. furfur (M. furfur CBS 7019) it was 20000 ppm; in the test on M. globosa (M. globosa CBS 7966), 8000 ppm; in the test on M. globosa (M. globosa PM1) it was 8000 ppm; in the test with M. sympodialis (M. sympodialis ATCC 42132, pH 5.5, 32° C.), 4000 ppm; with M. sympodialis (M. sympodialis CBS 7222, pH 5.5, 32° C.), 20000 ppm. Moreover, the “Minimal inhibitory concentration (MIC)” value in the test with M. sympodialis (M. sympodialis CBS 7979, pH 5.5, 32° C.) is reported as 20000 ppm; with M. sympodialis (M. sympodialis DSM 6171, pH 5.5, 32° C.) it was 20000 ppm.
For `CCCCCCCCC(O)CO` (stereo not shown) [1,2-Decandiol], the MIC worked out at 8000 µg/mL (≈ 45.9 mM) in the test on M. globosa (336 h, M. globosa PM1); 8000 µg/mL (≈ 45.9 mM) with M. globosa (setting [3]); 8000 µg/mL (≈ 45.9 mM) with M. globosa (setting [4]); 1000 µg/mL (≈ 5.74 mM) with M. restricta; 1000 µg/mL (≈ 5.74 mM) in the test with M. sympodialis (setting [6]); 1000 µg/mL (≈ 5.74 mM) in the test on M. sympodialis (setting [7]). For the same compound, the MIC in the test with M. sympodialis (setting [8]) turned out to be 2000 µg/mL (≈ 11.5 mM); with M. sympodialis (setting [9]), 4000 µg/mL (≈ 23 mM).
In the case of `C=CCCCCCCCCC(=O)OCC(CO)OC(=O)CCCCCCCCC=C` (stereo not shown) [3-Hydroxypropyl diundecylenoate], the “Minimal inhibitory concentration (MIC)” value in the test on M. furfur (M. furfur CBS 1878) is reported as above 20000 ppm; in the test with M. furfur (M. furfur CBS 7019), above 20000 ppm; in the test with M. globosa (M. globosa CBS 7966), 10000 ppm; with M. globosa (M. globosa PM1), 10000 ppm.
